Data from patent US20240174690A1, “ANNULATED 2-AMINO-3-CYANO THIOPHENES AND DERIVATIVES FOR THE TREATMENT OF CANCER” (BOEHRINGER INGELHEIM INTERNATIONAL GMBH, priority 2021, published 2024).

Experiments:
[1] = Plasma protein binding assay (PPB), equilibrium dialysis, 10% FCS in PBS; format: in vitro ADME; conditions: bovine, read-out: PPB 10% FCS (% fu)
How it was run: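 Equilibrium dialysis (5-10 kg/mol cut-off membrane) of 1-10 μmol/L test compound in 10% FCS/PBS against PBS with or without dextran, 3-5 h at 37° C. Compound in each chamber quantified by LC-MS after protein precipitation; fu calculated from Cserum and Cbuffer.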

LOVO cells = experiment: LOVO CTG proliferation assay (120 h) (CRC, G13D); format: cell-based; conditions: Homo sapiens, CTG 120 h
How it was run: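 LOVO cells, 1000 per well in DMEM + 10% FCS, were plated overnight and then dosed with compound from DMSO stock. After 120 h at 37 °C, viability was read by CellTiter-Glo luminescence as a percentage of DMSO controls. IC50 was derived by four-parameter non-linear regression.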

SK-CO-1 cells = experiment: SK-CO-1 CTG proliferation assay (120 h) (CRC, G12V); format: cell-based; conditions: Homo sapiens; SK-CO-1 cells (CRC, G12V), CTG 120 h
How it was run: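 SK-CO-1 colorectal cells (KRAS G12V), 500 per well in EMEM + 10% FCS, dosed with compound the day after seeding and grown 120 h at 37 °C. Viability by CellTiter-Glo luminescence as percent of DMSO control; IC50 from four-parameter non-linear regression.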

[2] = tested on: KRAS G12D-dependent Ba/F3 cells; experiment: Ba/F3 proliferation assay, KRAS G12D; format: cell-based; conditions: Mus musculus, BaF3, 72 h, AlamarBlue
How it was run: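 Ba/F3 cells were retrovirally transduced with KRAS G12 mutant vectors, puromycin-selected (1 μg/mL) and grown without IL-3 to make them KRAS-dependent. Compounds were tested in technical duplicates, viability was read by AlamarBlue fluorescence, and values came from curve fitting.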

NCI-H2122 cells = experiment: NCI-H2122 CTG proliferation assay (120 h) (NSCLC, G12C); format: cell-based; conditions: Homo sapiens
How it was run: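 NCI-H2122 cells (KRAS G12C NSCLC), 200 per well in RPMI with 10% FCS, were dosed with compound on day 1 and incubated 120 h at 37 °C. Viability was read by CellTiter-Glo luminescence as percent of DMSO control, and IC50 was fitted with a four-parameter model.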

| fraction unbound [1] | IC50 (LOVO cells) | IC50 (SK-CO-1 cells) | IC50 [2] | IC50 (NCI-H2122 cells) | Structure (SMILES) |
| --- | --- | --- | --- | --- | --- |
| 0.15 | 223 nM | 515 nM | 3 nM | – | CO[C@H]1CCN(C)[C@@H]1[C@H](C)Oc1cc(N2CCNC3(CC3)C2)nc(-c2onc3c2CCC[C@@]32CCCc3sc(N)c(C#N)c32)n1 [I-49] |
| 0.14 | 315 nM | 763 nM | 11 nM | – | C[C@H](Oc1cc(N2CCNC3(CC3)C2)nc(-c2onc3c2CCC[C@@]32CCCc3sc(N)c(C#N)c32)n1)[C@@H]1C[C@@H](F)CN1C [I-45] |
| 0.14 | 439 nM | 2050 nM | 41 nM | – | CO[C@@H]1C[C@@H]([C@H](C)Oc2cc(N3CCN(C)C4(CC4)C3)nc(-c3onc4c3CCC[C@@]43CCCc4sc(N)c(C#N)c43)n2)N(C)C1 [I-50] |
| 0.04 | 21 nM | 11 nM | 10 nM | 19 nM | C[C@H](Oc1cc(-n2ccc(C(=O)N3CCCC3)n2)nc(-c2noc3c2CCC[C@@]32CCCc3sc(N)c(C#N)c32)n1)[C@@H]1CCCN1C [II-19] |
| 0.03 | 124 nM | 31 nM | 53 nM | 2950 nM | CCOC(=O)c1ccn(-c2cc(O[C@@H](C)[C@@H]3CCCN3C)nc(-c3noc4c3CCC[C@@]43CCCc4sc(N)c(C#N)c43)n2)n1 [II-23] |
| 0.64 | > 25000 nM | 9070 nM | 273 nM | 3550 nM | C[C@H]1CN(C)CCCN1c1cc(N2CCN(C)CC2)nc(-c2noc3c2CCC[C@@]32CCCc3sc(N)c(C#N)c32)n1 [II-30] |
| 0.53 | 1270 nM | 418 nM | 178 nM | 4120 nM | C[C@H](Oc1cc(Cl)nc(-c2onc3c2CCC[C@@]32CCCc3sc(N)c(C#N)c32)n1)[C@@H]1CCCN1C [I-1] |
| 0.09 | 32 nM | 7 nM | 7 nM | – | CO[C@H]1CCN(C)[C@@H]1[C@H](C)Oc1cc(-n2ccc(C(=O)N[C@H]3CCOC3)n2)nc(-c2onc3c2CCC[C@@]32CCCc3sc(N)c(C#N)c32)n1 [I-54] |
| 0.1 | 703 nM | 910 nM | 26 nM | 1650 nM | C[C@H](Oc1cc(N2CCNC3(CCCC3)C2)nc(-c2noc3c2CCC[C@@]32CCCc3sc(N)c(C#N)c32)n1)[C@@H]1CCCN1C [II-41] |
| 0.54 | 1650 nM | 381 nM | 71 nM | 3130 nM | C[C@H](Oc1cc(-n2nccn2)nc(-c2onc3c2CCC[C@@]32CCCc3sc(N)c(C#N)c32)n1)[C@@H]1CCCN1C [I-29] |
| 0.09 | 720 nM | 433 nM | 90 nM | 9480 nM | C[C@H](Oc1cc(-c2cnn(C)n2)nc(-c2noc3c2CCC[C@@]32CCCc3sc(N)c(C#N)c32)n1)[C@@H]1C[C@@H](F)CN1C [II-28] |
| 0.17 | 2920 nM | 1240 nM | 68 nM | 3600 nM | C[C@H](Oc1cc(N2CCN(C)CC2)nc(-c2noc3c2CCC[C@@]32CCCc3sc(N)c(C#N)c32)n1)[C@@H]1CCCN1[C@@H]1CCOC1 [II-39] |
| 0.06 | 51 nM | 29 nM | 1040 nM | 112 nM | C[C@H](Oc1cc(-n2ccsc2=O)nc(-c2noc3c2CCC[C@@]32CCCc3sc(N)c(C#N)c32)n1)[C@@H]1CCCN1C [II-135] |
| 0.61 | 6600 nM | 1790 nM | 58 nM | 10600 nM | C[C@H](Oc1cc(N2CCNCC2)nc(-c2noc3c2CCC[C@@]32CCCc3sc(N)c(C#N)c32)n1)[C@@H]1CCCN1C [II-45] |
| 0.38 | 31 nM | 20 nM | 14 nM | 10200 nM | C[C@H](Oc1cc([C@@H]2CCOC2)nc(-c2onc3c2CCC[C@@]32CCCc3sc(N)c(C#N)c32)n1)[C@@H]1CCCN1C [I-22] |
| – | – | – | 440 nM | – | C[C@H]1CN(C)CCCN1c1nc(-c2onc3c2CCC[C@@]32CCCc3sc(N)c(C#N)c32)cc(N2CCN(C)C3(CC3)C2)n1 [I-42] |
| 0.06 | 39 nM | 9 nM | 12 nM | – | COCCNC(=O)c1ccn(-c2cc(O[C@@H](C)[C@@H]3[C@@H](OC)CCN3C)nc(-c3onc4c3CCC[C@@]43CCCc4sc(N)c(C#N)c43)n2)n1 [I-55] |
| 0.28 | 29 nM | 14 nM | 11 nM | – | COCCNC(=O)c1ccn(-c2cc(O[C@@H](C)[C@@H]3CCCN3C)nc(-c3onc4c3CCC[C@@]43CCCc4sc(N)c(C#N)c43)n2)n1 [I-58] |
| 0.06 | 493 nM | 1390 nM | 18 nM | – | [2H]C([2H])([2H])N1C[C@H](F)C[C@H]1[C@H](C)Oc1cc(N2CCN(C)C3(CC3)C2)nc(-c2noc3c2CCC[C@@]32CCCc3sc(N)c(C#N)c32)n1 [II-209] |
| 0.32 | 23 nM | 8 nM | 16 nM | – | C[C@H](Oc1cc(-n2ccc(C(=O)N[C@@H]3CCOC3)n2)nc(-c2onc3c2CCC[C@@]32CCCc3sc(N)c(C#N)c32)n1)[C@@H]1CCCN1C [I-56] |
| 0.12 | 23 nM | 14 nM | 24 nM | – | CO[C@H]1CCN(C)[C@@H]1[C@H](C)Oc1cc(-n2ccc(CC(=O)NC(C)C)n2)nc(-c2onc3c2CCC[C@@]32CCCc3sc(N)c(C#N)c32)n1 [I-48] |
| 0.04 | 22 nM | 5 nM | 13 nM | – | C[C@H](NC(=O)c1ccn(-c2cc(O[C@@H](C)[C@@H]3CCCN3C)nc(-c3onc4c3CCC[C@@]43CCCc4sc(N)c(C#N)c43)n2)n1)c1ccccn1 [I-59] |
| 0.05 | 29 nM | 7 nM | 12 nM | – | CO[C@H]1CCN(C)[C@@H]1[C@H](C)Oc1cc(-n2ccc(C(=O)N[C@@H]3CCOC3)n2)nc(-c2onc3c2CCC[C@@]32CCCc3sc(N)c(C#N)c32)n1 [I-53] |
| – | 8 nM | 4 nM | 8 nM | – | C[C@H](Oc1cc(-n2ccc(C(=O)N[C@H]3CCOC3)n2)nc(-c2onc3c2CCC[C@@]32CCCc3sc(N)c(C#N)c32)n1)[C@@H]1CCCN1C [I-57] |
| 0.15 | 334 nM | 398 nM | 3 nM | – | [2H]C([2H])([2H])N1C[C@H](F)C[C@H]1[C@H](C)Oc1cc(N2CCNC3(CC3)C2)nc(-c2noc3c2CCC[C@@]32CCCc3sc(N)c(C#N)c32)n1 [II-208] |
| 0.11 | 49 nM | 444 nM | 20 nM | – | C[C@H](Oc1cc(N2C[C@H](C)NC3(CC3)C2)nc(-c2noc3c2CCC[C@@]32CCCc3sc(N)c(C#N)c32)n1)[C@@H]1C[C@@H](F)CN1C [II-18] |
| 0.1 | 49 nM | 21 nM | 22 nM | – | C[C@H](Oc1cc(-n2ccc(C(=O)N(C)C3COC3)n2)nc(-c2onc3c2CCC[C@@]32CCCc3sc(N)c(C#N)c32)n1)[C@@H]1CCCN1C [I-60] |
| 0.09 | 186 nM | 617 nM | 39 nM | – | C[C@@H]1CN(c2cc(O[C@@H](C)[C@@H]3C[C@@H](F)CN3C)nc(-c3noc4c3CCC[C@@]43CCCc4sc(N)c(C#N)c43)n2)CC2(CC2)N1 [II-17] |
